Assay: Partition coefficient (logP butanol/buffer)
Type: physicochemical
Conditions: 1-butanol / 50 mM Tris-HCl, pH 7.4, room temperature

Log P (butanol/buffer)	SMILES
−1.68	CCOCCOCCOCCOc1ccc(C[C@H](C(=O)O)N2CCN(CC(=O)[O-])CCN(CC(=O)[O-])CCN(CC(=O)[O-])CC2)cc1.[Gd+3] [Example 12, gadolinium 2,2′,2″-{10-[(1R)-1-carboxy-2-(4-{2-[2-(2-ethoxyethoxy)ethoxy]ethoxy}phenyl)ethyl]-1,4,7,10-tetraazacyclododecane-1,4,7-triyl}triacetate]
−0.77	O=C([O-])CN1CCN(CC(=O)[O-])CCN([C@H](Cc2ccc(OCC(F)(F)F)cc2)C(=O)O)CCN(CC(=O)[O-])CC1.[Gd+3] [Example 47, gadolinium 2,2′,2″-(10-{(1R)-1-carboxy-2-[4-(2,2,2-trifluoroethoxy)phenyl]ethyl}-1,4,7,10-tetraazacyclododecane-1,4,7-triyl)triacetate]
−1.53	CCOCCOc1ccc(CC(C(=O)O)N2CCN(CC(=O)[O-])CCN(CC(=O)[O-])CCN(CC(=O)[O-])CC2)cc1.[Gd+3] (stereo not shown) [Example 32, gadolinium 2,2′,2″-(10-{1-carboxy-2-[4-(2-ethoxyethoxy)phenyl]ethyl}-1,4,7,10-tetraazacyclododecane-1,4,7-triyl)triacetate]
−1.81	CCOCCOCCOc1ccc(CC(C(=O)O)N2CCN(CC(=O)[O-])CCN(CC(=O)[O-])CCN(CC(=O)[O-])CC2)cn1.[Gd+3] (stereo not shown) [Example 16, gadolinium 2,2′,2″-{10-[1-carboxy-2-{6-[2-(2-ethoxyethoxy)ethoxy]pyridin-3-yl}ethyl]-1,4,7,10-tetraazacyclododecane-1,4,7-triyl}triacetate]
−1.94	CCOCCOCCOc1ccc(CC(C(=O)O)N2CCN(CC(=O)[O-])CCN(CC(=O)[O-])CCN(CC(=O)[O-])CC2)nc1.[Gd+3] (stereo not shown) [Example 23, gadolinium 2,2′,2″-{10-[1-carboxy-2-{5-[2-(2-ethoxyethoxy)ethoxy]pyridin-2-yl}ethyl]-1,4,7,10-tetraazacyclododecane-1,4,7-triyl}triacetate]
−1.11	CCOCCOCCOc1ccc(CCC[C@@H](C(=O)O)N2CCN([C@H](CO)C(=O)[O-])CCN([C@H](CO)C(=O)[O-])CCN([C@H](CO)C(=O)[O-])CC2)cc1.[Gd+3] [Example 20, gadolinium (2R,2′R,2″R)-2,2′,2″-{10-[(1S)-1-carboxy-4-{4-[2-(2-ethoxyethoxy)ethoxy]phenyl}butyl]-1,4,7,10-tetraazacyclododecane-1,4,7-triyl}tris(3-hydroxypropanoate)]
−1.11	CCOCCOCCOc1ccc(CCC[C@H](C(=O)O)N2CCN([C@@H](CO)C(=O)[O-])CCN([C@@H](CO)C(=O)[O-])CCN([C@@H](CO)C(=O)[O-])CC2)cc1.[Gd+3] [Example 18, gadolinium (2S,2′S,2″S)-2,2′,2″-{10-[(1R)-1-carboxy-4-{4-[2-(2-ethoxyethoxy)ethoxy]phenyl}butyl]-1,4,7,10-tetraazacyclododecane-1,4,7-triyl}tris(3-hydroxypropanoate)]
−1.61	CCOCCOCCOc1ccc(CC(C(=O)O)N2CCN(CC(=O)[O-])CCN(C(CO)C(=O)[O-])CCN(CC(=O)[O-])CC2)cc1.[Gd+3] (stereo not shown) [Example 41, gadolinium-2-{7-[1-carboxy-2-{4-[2-(2-ethoxyethoxy)ethoxy]phenyl}ethyl]-4,10-bis(carboxylatomethyl)-1,4,7,10-tetraazacyclododecan-1-yl}-3-hydroxypropanoate]
−1.61	CCOCCOCCOc1ccc(C[C@H](C(=O)O)N2CCN(CC(=O)[O-])CCN(CC(=O)[O-])CCN(CC(=O)[O-])CC2)cc1.[Gd+3] [Example 4, gadolinium 2,2′,2″-{10-[(1R)-1-carboxy-2-{4-[2-(2-ethoxyethoxy)ethoxy]phenyl}ethyl]-1,4,7,10-tetraazacyclododecane-1,4,7-triyl}triacetate]
−0.36	COCC(C(=O)O)N1CCN(CC(=O)[O-])CCN(C(Cc2ccc(OCC(F)(F)C(F)F)cc2)C(=O)[O-])CCN(CC(=O)[O-])CC1.[Gd+3] (stereo not shown) [Example 45, gadolinium-2-{4,10-bis(carboxylatomethyl)-7-[1-carboxy-2-methoxyethyl]-1,4,7,10-tetraazacyclododecan-1-yl}-3-[4-(2,2,3,3-tetrafluoropropoxy)phenyl]propanoate]
−0.95	CCOCCOCCOc1ccc(CCC[C@H](C(=O)O)N2CCN([C@H](CO)C(=O)[O-])CCN([C@H](CO)C(=O)[O-])CCN([C@H](CO)C(=O)[O-])CC2)cc1.[Gd+3] [Example 19, gadolinium (2R,2R,2″R)-2,2′,2″-{10-[(1R)-1-carboxy-4-{4-[2-(2-ethoxyethoxy)ethoxy]phenyl}butyl]-1,4,7,10-tetraazacyclododecane-1,4,7-triyl}tris(3-hydroxypropanoate)]
−1.09	CCOCCOc1ccc(CC(C(=O)O)N2CCN(CC(=O)[O-])CCN(C(CC)C(=O)[O-])CCN(CC(=O)[O-])CC2)cc1.[Gd+3] (single isomer, unassigned) [Example 7, gadolinium 2-[7-{1-carboxy-2-[4-(2-ethoxyethoxy)phenyl]ethyl}-4,10-bis(carboxylatomethyl)-1,4,7,10-tetraazacyclododecan-1-yl]butanoate]
−1.01	CCOCCOCCOc1ccc(CCC[C@@H](C(=O)O)N2CCN(CC(=O)[O-])CCN(CC(=O)[O-])CCN(CC(=O)[O-])CC2)cc1.[Gd+3] [Example 26, gadolinium 2,2′,2″-{10-[(1S)-1-carboxy-4-{4-[2-(2-ethoxyethoxy)ethoxy]phenyl}butyl]-1,4,7,10-tetraazacyclododecane-1,4,7-triyl}triacetate]
−0.41	CCOc1ccc(CCCC[C@@H](C(=O)O)N2CCN(CC(=O)[O-])CCN(CC(=O)[O-])CCN(CC(=O)[O-])CC2)cc1.[Gd+3] [Example 27, gadolinium 2,2′,2″-{10-[(1S)-1-carboxy-5-(4-ethoxyphenyl)pentyl]-1,4,7,10-tetraazacyclo-dodecane-1,4,7-triyl}triacetate]
−1.19	CCOCCOCCOc1ccc(CC(C(=O)[O-])N2CCN(CC(=O)[O-])CCN(C(CC)C(=O)O)CCN(CC(=O)[O-])CC2)cc1.[Gd+3] (stereo not shown) [Example 43, gadolinium-2-{4,10-bis(carboxylatomethyl)-7-[1-carboxypropyl]-1,4,7,10-tetraazacyclododecan-1-yl}-3-{4-[2-(2-ethoxyethoxy)ethoxy]phenyl}propanoate]
−0.71	CCOc1ccc(CCCC(C(=O)O)N2CCN(CC(=O)[O-])CCN(CC(=O)[O-])CCN(CC(=O)[O-])CC2)cc1.[Gd+3] (stereo not shown) [Example 28, gadolinium 2,2′,2″-{10-[1-carboxy-4-(4-ethoxyphenyl)butyl]-1,4,7,10-tetraazacyclododecane-1,4,7-triyl}triacetate]
−1.63	CCOCCOCCOc1ccc(CC(C(=O)O)N2CCN(CC(=O)[O-])CCN(CC(=O)[O-])CCN(CC(=O)[O-])CC2)cc1.[Gd+3] (stereo not shown) [Example 2, gadolinium 2,2′,2″-{10-[1-carboxy-2-{4-[2-(2-ethoxyethoxy)ethoxy]phenyl}ethyl]-1,4,7,10-tetraazacyclododecane-1,4,7-triyl}triacetate]
−0.71	CCCOc1ccc(CCC(C(=O)O)N2CCN(CC(=O)[O-])CCN(CC(=O)[O-])CCN(CC(=O)[O-])CC2)cc1.[Gd+3] (stereo not shown) [Example 24, gadolinium 2,2′,2″-{10-[1-carboxy-3-(4-propoxyphenyl)propyl]-1,4,7,10-tetraazacyclododecane-1,4,7-triyl}triacetate]
−1.68	CCOCCOCCOCCOc1ccc(C[C@@H](C(=O)O)N2CCN(CC(=O)[O-])CCN(CC(=O)[O-])CCN(CC(=O)[O-])CC2)cc1.[Gd+3] [Example 11, gadolinium 2,2′,2″-{10-[(1S)-1-carboxy-2-(4-{2-[2-(2-ethoxyethoxy)ethoxy]ethoxy}phenyl)ethyl]-1,4,7,10-tetraazacyclododecane-1,4,7-triyl}triacetate]
−1.04	CCOCCOc1ccc(CC(C(=O)O)N2CCN(CC(=O)[O-])CCN(C(CC)C(=O)[O-])CCN(CC(=O)[O-])CC2)cc1.[Gd+3] (single isomer, unassigned) [Example 8, gadolinium 2-[7-{1-carboxy-2-[4-(2-ethoxyethoxy)phenyl]ethyl}-4,10-bis(carboxylatomethyl)-1,4,7,10-tetraazacyclododecan-1-yl]butanoate]

SMILES	Log P (butanol/buffer)
CCCCOc1ccc(CCC[C@@H](C(=O)O)N2CCN(CC(=O)[O-])CCN(CC(=O)[O-])CCN(CC(=O)[O-])CC2)cc1.[Gd+3] [Example 31, gadolinium 2,2′,2″-{10-[(1S)-4-(4-butoxyphenyl)-1-carboxybutyl]-1,4,7,10-tetraazacyclododecane-1,4,7-triyl}triacetate]	0.20
O=C([O-])CN1CCN(CC(=O)[O-])CCN(C(Cc2ccc(OCC(F)(F)C(F)F)cc2)C(=O)O)CCN(CC(=O)[O-])CC1.[Gd+3] (stereo not shown) [Example 46, gadolinium 2,2′,2″-(10-{1-carboxy-2-[4-(2,2,3,3-tetrafluoropropoxy)phenyl]ethyl}-1,4,7,10-tetraazacyclododecane-1,4,7-triyl)triacetate]	−0.57
CCOCCOCCOc1ccc(CC(C(=O)O)N2CCN(C(CCO)C(=O)[O-])CCN(C(CCO)C(=O)[O-])CCN(C(CCO)C(=O)[O-])CC2)cc1.[Gd+3] (stereo not shown) [Example 37, gadolinium-2,2′-{4-[1-carboxy-2-{4-[2-(2-ethoxyethoxy)ethoxy]phenyl}ethyl]-10-[1-carboxylato-3-hydroxypropyl]-1,4,7,10-tetraazacyclododecane-1,7-diyl}bis(4-hydroxybutanoate)]	−1.16
CCOCCOCCOc1ccc(CC(C(=O)O)N2CCN(CC(=O)[O-])CCN(C(C)C(=O)[O-])CCN(CC(=O)[O-])CC2)cc1.[Gd+3] (single isomer, unassigned) [Example 6, gadolinium 2-[7-(1-carboxy-2-{4-[2-(2-ethoxyethoxy)ethoxy]phenyl}ethyl)-4,10-bis(carboxylatomethyl)-1,4,7,10-tetraazacyclododecan-1-yl]propanoate]	−1.44
CCCCOc1ccc(CC(C(=O)O)N2CCN(CC(=O)[O-])CCN(CC(=O)[O-])CCN(CC(=O)[O-])CC2)cc1.[Gd+3] (stereo not shown) [Example 14, gadolinium 2,2′,2″-{10-[2-(4-butoxyphenyl)-1-carboxyethyl]-1,4,7,10-tetraazacyclododecane-1,4,7-triyl}triacetate]	−0.38

From patent US20240182431A1, “NEW CONTRAST AGENT FOR USE IN MAGNETIC RESONANCE IMAGING” (Bayer Aktiengesellschaft, priority 2021, published 2024)
